The source of these data is patent US9090593B2, “Bicyclic compounds as Pim inhibitors” (AMGEN INC., priority 2010, dated 2015).

Like-named read-outs stand apart in the source and are kept apart here.

Assay [1] has as its target T1, full length recombinant Pim-1 protein (Homo sapiens, UniProt P11309).
T1 construct: by full length recombinant Pim-1, Pim-2, or Pim-3 protein; hexahistidine tag followed by a thrombin cleavage site (N); made in house; host or cells: Sf9 (baculovirus) or E. coli (pET28)
The assay is described as follows: Pim-1 enzyme assay (HTRF, phosphorylation of biotinylated-BAD (S112) peptide). The class given is biochemical. To be noted: read-out: Pim_1_IC50. The procedure, abridged:
(§1)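 Full-length His-tagged Pim-1 or Pim-2 (Sf9 or E. coli expressed, purified) phosphorylated biotinylated BAD (S112) peptide in 60 mM Hepes pH 7.0, 0.05% BSA, 2 mM DTT. Reaction stopped with 3 mM EDTA; phospho-BAD read by HTRF with Eu anti-phospho-BAD antibody and streptavidin-APC. IC50 from percent of control by 4-parameter logistic fit.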

The target of assay [2] is T2, full length recombinant Pim-2 protein (Homo sapiens, UniProt Q9P1W9).
T2 construct: by full length recombinant Pim-1, Pim-2, or Pim-3 protein; hexahistidine tag followed by a thrombin cleavage site (N); made in house; host or cells: Sf9 (baculovirus) or E. coli (pET28)
T2 sequence (Q9P1W9 whole entry): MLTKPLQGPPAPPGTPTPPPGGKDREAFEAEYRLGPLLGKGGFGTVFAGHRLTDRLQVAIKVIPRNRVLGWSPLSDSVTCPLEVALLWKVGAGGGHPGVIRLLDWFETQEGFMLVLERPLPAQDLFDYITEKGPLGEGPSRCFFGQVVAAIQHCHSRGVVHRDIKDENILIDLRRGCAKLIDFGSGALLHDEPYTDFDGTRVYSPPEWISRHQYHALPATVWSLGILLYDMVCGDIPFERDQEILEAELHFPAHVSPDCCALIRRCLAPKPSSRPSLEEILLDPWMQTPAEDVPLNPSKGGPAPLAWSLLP
Kind of assay: Pim-2 enzyme assay (HTRF, phosphorylation of biotinylated-BAD (S112) peptide). The class given is biochemical. The note with it: read-out: Pim2_IC50. Summed up: as §1

The target in assay [3] is T3, full length recombinant Pim-3 protein (Homo sapiens, UniProt Q86V86).
T3 construct: by full length recombinant Pim-1, Pim-2, or Pim-3 protein; purchased Millipore (UK)
Kind of assay: Pim-3 enzyme assay (HTRF, phosphorylation of biotinylated-BAD (S112) peptide). It is filed as biochemical. The note with it: read-out: Pim3 IC50. The text has this:
Pim-3 was purchased from Millipore (UK).
The phosphorylation of biotinylated-BAD (S112) peptide by full length recombinant Pim-1, Pim-2, or Pim-3 protein was detected with streptavidin:Allophycocyanin (APC) conjugate and a europium (Eu) labeled antibody directed against phosphorylated-BAD (S112). […] The fluorescence is directly proportional to the amount of phosphorylated BAD peptide present in the reaction.
A reference compound was included on each assay plate in order to validate that plate; on one plate of every assay run, two additional reference compounds were included.
The final buffer conditions were as follows: 60 mM Hepes, pH 7.0, 0.05% BSA, 2 mM DTT. […] The reaction was stopped by the addition of 3 mM EDTA, and fluorescence was measured by an HTRF® Rubystar microplate reader. For each plate, percent of control (POC) values were calculated for each well. Values for the IC50 IP were estimated using a standard 4-parameter logistic model.

For assay [4], the target named is T4, Pim-1 stably transfected into the U2OS human osteogenic sarcoma line (Homo sapiens, UniProt P11309).
T4 construct: expressed in transfected cells; host or cells: U2OS human osteogenic sarcoma line
T4 sequence (P11309 whole entry): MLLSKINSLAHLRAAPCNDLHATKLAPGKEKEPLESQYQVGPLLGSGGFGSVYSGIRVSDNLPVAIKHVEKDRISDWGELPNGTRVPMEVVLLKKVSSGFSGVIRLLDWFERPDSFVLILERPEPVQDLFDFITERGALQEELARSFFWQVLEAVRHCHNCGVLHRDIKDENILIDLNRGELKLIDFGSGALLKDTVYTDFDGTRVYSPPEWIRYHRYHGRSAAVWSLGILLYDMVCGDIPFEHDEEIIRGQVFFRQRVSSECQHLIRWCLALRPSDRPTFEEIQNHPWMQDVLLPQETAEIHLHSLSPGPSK
The assay is described as follows: Pim cell assay, phospho-BAD normalized against total BAD, U2OS stably transfected with Pim-1. The class given is cell-based. To be noted: U2OS stably transfected with Pim-1; phospho-BAD normalized against total BAD; 29 min incubation; read-out: Pim1_Cell_IC50_. Summed up: (§2)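 U2OS cells stably expressing Pim-1 or Pim-2 were plated overnight at 37 °C, then dosed over a 10-point curve (final 0.3% DMSO; DMSO alone as high control). Lysates assayed for phospho- and total BAD by Meso Scale immunoassay; % phosphoprotein = (2×phospho)/(phospho+total)×100.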

The target of assay [5] is T5, Pim-2 stably transfected into the U2OS human osteogenic sarcoma line (Homo sapiens, UniProt Q9P1W9).
T5 construct: expressed in transfected cells; host or cells: U2OS human osteogenic sarcoma line
T5 sequence (Q9P1W9 whole entry): as the sequence (Q9P1W9 whole entry) above
The assay is described as follows: Pim cell assay, phospho-BAD normalized against total BAD, U2OS stably transfected with Pim-2. The class given is cell-based. The note with it: U2OS stably transfected with Pim-2; phospho-BAD normalized against total BAD; 29 min incubation; read-out: Pim2_Cell_IC50_. Summed up: as §2

T1 sequence (P11309 whole entry): as the sequence (P11309 whole entry) above

Regarding “3-(6-(4-amino-1-piperidinyl)-2-pyrazinyl)-N-benzyl-1H-indole-5-carboxamide [Example 241]”, the IC50 in assay [1] (enzyme assay, Pim-1) amounted to 376 nM; in assay [2] (enzyme assay, Pim-2), 2480 nM; in assay [3] it was 538 nM.

On to “3-(6-(4-amino-1-piperidinyl)-2-pyrazinyl)-N-phenyl-1H-indole-5-carboxamide [Example 240]”, for which the IC50 is 254 nM in assay [1] (enzyme assay, Pim-1); over 3000 nM in assay [2] (enzyme assay, Pim-2); 719 nM in assay [3].

Regarding `Fc1cccc(F)c1-c1ccc2[nH]nc(-c3cncc(O[C@@H]4CNCC[C@H]4F)n3)c2c1` (single isomer, unassigned) [Example 18, 5-(2,6-difluorophenyl)-3-(6-(trans-4-fluoropiperidin-3-yloxy)pyrazin-2-yl)-1H-indazole], the IC50 in assay [1] (enzyme assay, Pim-1) came to 75 nM; in assay [2] (enzyme assay, Pim-2), 264 nM; in assay [3] it was 34 nM.

As for `c1cc2[nH]nc(-c3cncc(NC4CC4)n3)c2cc1-c1cncc(C2CC2)n1` [Example 391, N-cyclopropyl-6-(5-(6-cyclopropyl-2-pyrazinyl)-1H-indazol-3-yl)-2-pyrazinamine], the IC50 is 2 nM in assay [1], 12 nM in assay [2], 114 nM in assay [4] and over 10000 nM in assay [5].

As for `CC(C)(O)CNc1cncc(-c2n[nH]c3ccc(-c4cncc(C5CC5)n4)cc23)n1` [Example 392], the IC50 was 13 nM in assay [1], 66 nM in assay [2], 212 nM in assay [4] and over 10000 nM in assay [5].

On to `c1cc2[nH]nc(-c3cncc(O[C@H]4CNCCC45CC5)n3)c2cc1N1CCOCC1` [Example 400], for which the IC50 was found to be 17 nM in assay [1], 25 nM in assay [2], 1130 nM in assay [4] and 8650 nM in assay [5].

Take `Cc1ccccc1-c1ccc2[nH]nc(-c3cncc(O[C@H]4CNCCC45CC5)n3)c2c1` [Example 404]: the IC50 in assay [1] is 9 nM; in assay [2], 19 nM; in assay [4] it was 2580 nM; in assay [5] it was over 15800 nM.

Consider `FC(F)(F)c1ccccc1-c1ccc2[nH]nc(-c3cncc(O[C@H]4CNCCC45CC5)n3)c2c1` [Example 407], for which the IC50 was 20 nM in assay [1], 51 nM in assay [2], 2070 nM in assay [4] and over 15800 nM in assay [5].

Consider `Brc1ccc2[nH]nc(-c3cncc(O[C@@H]4CNCCC45CC5)n3)c2c1` [Example 421], for which the IC50 in assay [1] came to 19 nM; in assay [2], 50 nM; in assay [4], 1150 nM; in assay [5], 31700 nM.

Consider `CC(C)OC(=O)c1ccc2[nH]nc(-c3cncc(N4CCC(N)CC4)n3)c2c1` [Example 470], for which the IC50 is 2 nM in assay [1], 8 nM in assay [2], 204 nM in assay [4] and 8790 nM in assay [5].

`COC(=O)c1ccc2[nH]nc(-c3cncc(N[C@@H]4CCCNC4)n3)c2c1` [Example 473]: the IC50 in assay [1] came out at 4 nM; in assay [2], 44 nM; in assay [4], 221 nM; in assay [5], 9630 nM.

Turning to `CC(C)OC(=O)c1ccc2[nH]nc(-c3cncc(N[C@@H]4CCCNC4)n3)c2c1` [Example 474, 1-methylethyl 3-(6-((3R)-3-piperidinylamino)-2-pyrazinyl)-1H-indazole-5-carboxylate], the IC50 stood at 2 nM in assay [1], 52 nM in assay [2], 108 nM in assay [4] and 14600 nM in assay [5].

For the compound `COC(=O)c1ccc2[nH]nc(-c3cncc(O[C@@H]4CCCNC4)n3)c2c1` [Example 476], the IC50 in assay [1] was 18 nM; in assay [2] it was 144 nM; in assay [4], 588 nM; in assay [5], 31600 nM.

Regarding `CC(C)OC(=O)c1ccc2[nH]nc(-c3cncc(O[C@@H]4CCCNC4)n3)c2c1` [Example 477], the IC50 came to 8 nM in assay [1], 126 nM in assay [2], 348 nM in assay [4] and 20300 nM in assay [5].

Turning to `NC1CCN(c2cc(O)nc(-c3n[nH]c4ccc(-c5c(F)cccc5F)cc34)n2)CC1` [Example 482], the IC50 in assay [1] is 1 nM; in assay [2] it was 4 nM; in assay [4] it was 1200 nM; in assay [5], over 31600 nM.

`Oc1cc(-c2c[nH]c3ccc(-c4c(F)cccc4F)cc23)nc(N2CCOCC2)n1` [Example 483]: the IC50 in assay [1] was 4 nM; in assay [2], 32 nM; in assay [4], 219 nM; in assay [5], over 31600 nM.

Regarding `COC(=O)c1ccc2[nH]nc(-c3ccnc(N[C@@H]4CCCNC4)n3)c2c1` [Example 490], the IC50 was 13 nM in assay [1], 54 nM in assay [2], 522 nM in assay [4] and over 15800 nM in assay [5].

In the case of `COc1cc(-c2n[nH]c3ccc(-c4c(F)cccc4F)cc23)nc(N2CCC(N)CC2)n1` [Example 506], the IC50 in assay [1] was 15 nM; in assay [2], 33 nM; in assay [4], 3740 nM; in assay [5], over 31600 nM.

Consider `NC1CCN(c2cncc(-c3n[nH]c4ccc(-c5nccc6[nH]ccc56)cc34)n2)CC1` [Example 507], for which the IC50 in assay [1] is 3 nM; in assay [2], 65 nM; in assay [4], over 31600 nM; in assay [5], over 31600 nM.

With `CC(C)Oc1cncc(-c2ccc3[nH]cc(-c4nnc(N5CCC[C@H](N)C5)o4)c3c2)n1` [Example 510], the IC50 in assay [1] is 17 nM; in assay [2], 78 nM; in assay [4], 1010 nM; in assay [5], over 31600 nM.

In the case of `Oc1cc(N[C@@H]2CCCNC2)nc(-c2c[nH]c3ccc(-c4c(F)cccc4F)cc23)n1` [Example 515], the IC50 was 3 nM in assay [1], 7 nM in assay [2], 12000 nM in assay [4] and over 31600 nM in assay [5].

With `NC1CCN(c2ccnc(-c3n[nH]c4ccc(-c5c(F)cccc5F)cc34)n2)CC1` [Example 516], the IC50 in assay [1] was 6 nM; in assay [2] it was 142 nM; in assay [4], 861 nM; in assay [5], over 31600 nM.

For `NC1CCN(c2cncc(-c3c[nH]c4ccc(-c5cncc(C6CC6)n5)cc34)n2)CC1` [Example 517], the IC50 in assay [1] was 2 nM; in assay [2] it was 65 nM; in assay [4], 176 nM; in assay [5] it was over 31600 nM.

As for `CC(C)Oc1cncc(-c2ccc3[nH]cc(-c4nnc(N[C@@H]5CCCNC5)o4)c3c2)n1` [Example 518], the IC50 in assay [1] was 25 nM; in assay [2], 97 nM; in assay [4] it was 6920 nM; in assay [5], over 31600 nM.

In the case of `NC1CCN(c2cncc(-c3c[nH]c4ccc(-c5cncc(NC6CC6)n5)cc34)n2)CC1` [Example 519], the IC50 in assay [1] was 1 nM; in assay [2], 128 nM; in assay [4], 338 nM; in assay [5], over 31600 nM.

For `CC(C)Nc1nc(-c2n[nH]c3ccc(-c4c(F)cccc4F)cc23)cc(=O)[nH]1` [Example 524], the IC50 in assay [1] is 5 nM; in assay [2] it was 18 nM; in assay [4], 1010 nM; in assay [5], over 31600 nM.

For `CC(C)Oc1nc(-c2n[nH]c3ccc(-c4c(F)cccc4F)cc23)cc(=O)[nH]1` [Example 528], the IC50 in assay [1] is 13 nM; in assay [2] it was 36 nM; in assay [4] it was 779 nM; in assay [5] it was over 15800 nM.

For `COC(=O)c1ccc2[nH]nc(-c3cncc(N4CCC(N)CC4)n3)c2c1` [Example 558, methyl 3-(6-(4-amino-1-piperidinyl)-2-pyrazinyl)-1H-indazole-5-carboxylate], the IC50 in assay [1] amounted to 2 nM; in assay [2] it was 8 nM; in assay [4], 156 nM; in assay [5], 3800 nM.

For `NC1CCN(c2nc(O)cc(-c3n[nH]c4ccc(-c5c(F)cccc5F)cc34)n2)CC1` [Example 565], the IC50 in assay [1] amounted to 1 nM; in assay [2], 2 nM; in assay [4], 1760 nM; in assay [5], 13500 nM.

For `NC1CCN(c2cc(O)nc(-c3c[nH]c4ccc(-c5c(F)cccc5F)cc34)n2)CC1` [Example 566], the IC50 in assay [1] is 4 nM; in assay [2] it was 23 nM; in assay [4] it was 5590 nM; in assay [5], over 31600 nM.
